Results on five compounds are retold here after patent publication US8222268B2, “Methods for reducing vein irritation” (Adventrx Pharmaceuticals, Inc., priority 2004, dated 2012).

Data set [1] is described as follows: Dialysis test of vinorelbine incorporation into the oil phase of an emulsion. To be noted: for effect of stabilizer on vinorelbine incorporation into the oil phase (vinorelbine concentration in PBS): dialysis against PBS pH 7.4, emulsion with […] (w/w) vinorelbine bitartrate, FIG. 1.
Experimental: The concentration of each stabilizer added into formulation is: 1.57% (w/w) for sodium oleate, 2.73% (w/w) for vitamin E succinate, 2.46% (w/w) for riboflavin-5-phosphate sodium and 2.52% (w/w) for cholesterol sulfate. A formulation without any stabilizer (“control”) and a formulation with extra Phospholipon 90G were also evaluated in the study.
The drug incorporation into the oil phase was tested using a dialysis method developed specifically for this purpose. This method involved filling 500 mg of an emulsion into a Slide-A-Lyzer dialysis cassette with 10,000 MW cutoffs, placing the cassette in 70 mL phosphate buffered saline (PBS), pH 7.4 and shaking the solution on a platform shaker at 100 RPM.
The conditions of data set [2]: in distilled water; bitartrate salt form; cited from earlier work.

Structures can show the parent of a compound that is named as a salt.

On to `Cc1cc2nc3c(=O)[nH]c(=O)nc-3n(C[C@H](O)[C@H](O)[C@H](O)COP(=O)([O-])O)c2cc1C.[Na+]` [riboflavin-5-phosphate, riboflavin-5-phosphate sodium], for which, in data set [1], the “effect of stabilizer on vinorelbine incorporation into the oil phase (vinorelbine concentration in PBS)” value (from here on “effect of stabilizer”) was “most effective stabilizers”. `CCC1=C[C@@H]2CN(C1)Cc1c([nH]c3ccccc13)[C@@](C(=O)OC)(c1cc3c(cc1OC)N(C)[C@H]1[C@@](O)(C(=O)OC)[C@H](OC(C)=O)[C@]4(CC)C=CCN5CC[C@]31[C@@H]54)C2` [vinorelbine, reference compound]: in data set [1] (emulsion without a stabilizer), the “incorporation of vinorelbine in the oil phase” value is listed as “present primarily in the aqueous phase”. For the compound `Cc1c(C)c2c(c(C)c1OC(=O)CCC(=O)O)CC[C@@](C)(CCC[C@H](C)CCC[C@H](C)CCCC(C)C)O2` [Vitamin E succinate, vitamin E succinate], the “effect of stabilizer” value in data set [1] is given as “most effective stabilizers”.

The aqueous solubility is the concentration that dissolves in the medium under given conditions. As to `CCC1=C[C@@H]2CN(C1)Cc1c([nH]c3ccccc13)[C@@](C(=O)OC)(c1cc3c(cc1OC)N(C)[C@H]1[C@@](O)(C(=O)OC)[C@H](OC(C)=O)[C@]4(CC)C=CCN5CC[C@]31[C@@H]54)C2` (relative stereo) [vinorelbine bitartrate, 3′,4′-didehydro-4′-deoxy-C′-norvincaleukoblastine [R-(R*,R*)-2,3-dihydroxybutanedioate (1:2) (salt)]], the aqueous solubility in data set [2] is listed as over 1000 mg/mL. Take `CCCCCCCC/C=C\CCCCCCCC(=O)[O-].[Na+]` [sodium oleate]: the “effect of stabilizer” value in data set [1] is given as “most effective stabilizers”. For the same compound, the “partition of vinorelbine into the aqueous phase” value in data set [1] (vinorelbine-to-oleate molar ratio of 1:4 (charge ratio of 1:1), dialysis, 28 hours, FIG. 2) was “almost completely stopped the partition of vinorelbine into the aqueous phase”.
